Assay results reported in paper PMC10746708, “A small molecule iCDM-34 identified by in silico screening suppresses HBV DNA through activation of aryl hydrocarbon receptor” (Cell Death Discovery, 2023).

Tests used:
[1] = Liver microsomal stability, human; format: in vitro ADME; details: human liver microsomes
Procedure: (§1) Liver microsome stability studies (human, mouse, and rat) were performed at Sumika Chemical Analysis Service (Osaka, Japan) by following an established procedure. A mixture of 1 μM of substrate, 0.5 mg protein/mL of microsomes, and […] β-NADPH was incubated for 30 or 60 min and % remaining substrate was quantitatively measured by LC-MS/MS.

[2] = system: JAK/STAT signaling; assay: Western blotting of phospho-STAT1, STAT2, STAT3 in HCV replicon cells; format: cell-based, human; details: 30 μM, 24 h
Procedure: HCV replicon cells were treated with 30 μM CDM-3008, iCDM-17, and iCDM-34 for 1 day. The cells were lyzed with 1 x SDS sample buffer containing PhosStop, Complete EDTA free, and 1 mM EDTA. After sonication for 30 s, the lysates were centrifuged at 12,000g for 10 min at 4 °C, and then the supernatants were collected. After reducing the 20 μg of supernatants with 50 mM DTT at 98 °C for 2 min, the samples were separated by SDS-PAGE. STAT1, STAT2, STAT3, pSTAT1, pSTAT2, and pSTAT3 were detected by Western blotting using anti-STAT1 (9175, 1/1000), STAT2 (72604, 1/1000), STAT3 (12640, 1/1000), pSTAT1 (Y701) (7649, 1/1000), pSTAT2 (Y690) (88410, 1/1000), and pSTAT3 (Y705) (9145, 1/1000) antibodies (Cell signaling technology, Massachusetts, USA).

[3] = system: HBV genotype C; assay: Anti-HBV activity in HBV-infected PXB cells (HBV DNA by qPCR); format: cell-based; details: Hepatitis B virus, 168 h; HBV genotype C-infected PXB cells, 0.03–100 µM for 7 days, qPCR; read-out: half maximal inhibitory concentration, cellular HBV DNA
Procedure: PXB cells (primary cultured human hepatocytes) were purchased from PhoenixBio (Higashi-Hiroshima, Japan) and cultured on collagen type I-coated 96- or 24-well plates in hepatocyte clonal growth medium at 37 °C and 5 % CO2 as previously described. RealTime-Glo MT Cell Viability Assay (Promega) and XTT assay were performed according to a previously established protocol.
PXB cells were plated on 96-well plate and infected with three genome equivalents per cell of HBV C_AT [33], and the medium was changed every 3 or 4 days. […] After treatment with these compounds, cellular DNA, medium DNA, and total RNA were automatically purified as per our previously established protocol. RNA purification of total RNA from cultured cells in the 24-well plate was performed using the RNeasy Mini Kit (Qiagen, Germantown, MD, USA) according to the manufacturer’s instructions.
HBV DNA copy numbers were determined using TaqMan Gene Expression Master Mix (Thermo Fisher Scientific) or Probe qPCR Mix (Takara Bio), specific primers, and probes in a qPCR system (Light Cycler 96 System, Roche, Basel, Switzerland or CFX96 Touch Real-Time PCR Detection System, Bio-Rad Laboratories, Hercules, CA, USA). The specific primers and probe used for detection of HBV DNA were as follows: forward primer: 5′-[…]-3′, reverse primer: 5′-[…]-3′, and probe: 5′-[FAM] […][TAM]-3′.

[4] = Liver microsomal stability, mouse; format: in vitro ADME; details: mouse liver microsomes
Procedure: as §1

[5] = system: phospho-SAMHD1; assay: Western blotting of phospho-SAMHD1 in HepG2-NTCP-C4 cells; format: cell-based, human; details: 30 μM, 1 day
Procedure: HepG2-NTCP-C4 cells were treated with 30 μM iCDM-17 and iCDM-34 for 1 day. The cells were lyzed with 20 mM TrisHCl pH 7.5 containing 100 mM NaCl, 10 mM EDTA, 1% TritonX-100, 1% Sodium deoxycholate, PhosSTOP (Roche), Complete EDTA free. The lysates were sonicated 30 s and mixed for 1 h with rotation at 4 °C. The lysates were centrifuged at 15,000 rpm for 10 min at 4 °C. The supernatants were analyzed by Western blotting using anti-phospho-SAMHD1 (Thr592) (Cell signaling technology, 89930, 1/1000), anti-SAMHD1 (Cell signaling technology, 49158, 1/1000), and β−actin (Santa Cruz, 1/1000).

[6] = Liver microsomal stability, rat; format: in vitro ADME; details: rat liver microsomes
Procedure: as §1

[7] = 1 μM substrate, 0.5 mg protein/mL, 30 min
[8] = 1 μM substrate, 0.5 mg protein/mL, 60 min

**Q.** Which results are given for `COc1ccc(CNC(=O)c2nc(-c3ccc4c(c3)OCO4)no2)cc1OC` [iCDM-17]?
**A.** half-life at 1 μM [1]: 48.6 min; remaining at 0.5 h, 1 μM [1, 7]: 61.4 ± 0.9%; remaining at 1 h, 1 μM [1, 8]: 42.3 ± 0.1%; phosphorylation of STAT1, STAT2, and STAT3 [2]: not induced; IC50 [3]: 56.6 µM; half-life at 1 μM [4]: 34.8 min; remaining at 0.5 h, 1 μM [4, 7]: 45.8 ± 0.6%; remaining at 1 h, 1 μM [4, 8]: 22.6%; phospho-SAMHD1 levels [5]: lower than pre-treatment levels; half-life at 1 μM [6]: 26.7 min; remaining at 0.5 h, 1 μM [6, 7]: 32 ± 0.2%; remaining at 1 h, 1 μM [6, 8]: 11.6 ± 0.2%
